The term IC50 denotes the point on the concentration scale where inhibition reaches its midpoint.

In this assay the target is T1, BACE-1 enzyme (Homo sapiens, UniProt P56817).
T1 construct: purchased R & D Systems 931AS
T1 sequence (P56817 46-457 limits assumed): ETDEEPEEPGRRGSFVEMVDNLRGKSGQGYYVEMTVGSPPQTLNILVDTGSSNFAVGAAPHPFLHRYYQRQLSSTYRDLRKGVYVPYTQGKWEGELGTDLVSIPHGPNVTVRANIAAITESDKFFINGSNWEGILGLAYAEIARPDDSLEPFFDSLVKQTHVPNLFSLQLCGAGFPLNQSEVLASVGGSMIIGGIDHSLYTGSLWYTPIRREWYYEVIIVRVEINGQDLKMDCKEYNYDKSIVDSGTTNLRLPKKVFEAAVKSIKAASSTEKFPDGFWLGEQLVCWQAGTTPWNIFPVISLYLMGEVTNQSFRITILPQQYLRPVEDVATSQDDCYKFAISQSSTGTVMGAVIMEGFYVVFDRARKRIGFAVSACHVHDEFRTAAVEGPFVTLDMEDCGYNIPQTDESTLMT
As to the kind of experiment: BACE Fluorescence Resonance Energy Transfer (FRET) Assay. The following applies: pH 4-4.5, 30 min pre-incubation, about 1.5 hours reaction. It is filed as biochemical. The procedure: BACE Fluorescence Resonance Energy Transfer (FRET) Assay
In the following assay, the proteolytic activity of BACE is measured by observing cleavage of a fluorescent group from a peptide substrate containing a rhodamine fluorescent donor and a quenching acceptor.
The inhibitory activity of compounds of Formula (I) may be compared to a statine derived control inhibitor STA200 (MP Biomedical Cat. #STA-200). The cleavage reaction occurs when a BACE-1 substrate (Invitrogen, Cat. #P2986) was added to a reaction mixture containing BACE-1 enzyme (R & D Systems, Cat. #931AS) and allowed to proceed for about 1.5 hours. Fluorescence, used as a marker of BACE activity, is monitored using 540 nm excitation and 585 nm emission wavelengths (Envision, Perkin Elmer).
A typical assay reaction contains BACE-1 enzyme—in assay buffer (50 mM sodium acetate, pH 4-4.5, 0.01% CHAPS (3-[(3-Cholamidopropyl)dimethylammonio]-1-propanesulfonate), 0.0125% TritonX-100, 0.006% EDTA) which is pre-incubated for 30 minutes with test compound in 7.5% DMSO. The reaction is initiated with the addition of BACE-1 substrate in assay buffer and allowed to proceed for about 1.5 hours at room temperature. Assays are conducted in black 384-well microtiter plates and scanned at room temperature using 540 nm excitation and 585 nm emission wavelengths.
In some instances, the percent inhibition at a given concentration is reported instead of the IC50.
Compound `COCCCOc1cccc(-c2ccc3[nH]c(NC(=O)c4cn5c(C)cccc5n4)nc3c2)c1` [Example 39, 5-Methyl-imidazo[1,2-a]pyridine-2-carboxylic acid {5-[3-(3-methoxy-propoxy)-phenyl]-1H-benzoimidazol-2-yl}-amide] gave an IC50 of 1.32 µM.

Consider `CN1CCN(c2cc(F)cn3cc(C(=O)Nc4nc5cc(-c6cc(F)cc(Cl)c6)ccc5[nH]4)nc23)CC1` [Example 128, 6-Fluoro-8-(4-methyl-piperazin-1-yl)-imidazo[1,2-a]pyridine-2-carboxylic acid [5-(3-chloro-5-fluoro-phenyl)-1H-benzoimidazol-2-yl]-amide], for which the IC50 was 0.31 µM.

On to `O=C(Nc1nc2cc(-c3cc(F)cc(Cl)c3)ccc2[nH]1)c1cn2ccccc2n1` [Example 116, Imidazo[1,2-a]pyridine-2-carboxylic acid [5-(3-chloro-5-fluoro-phenyl)-1H-benzoimidazol-2-yl]-amide], for which inhibition was half-maximal at 0.38 µM (IC50). The IC50 values of the last two compounds are within 1.5-fold of each other.

`O=C(Nc1nc2cc(OCc3ccc(C(F)(F)F)cc3)ccc2[nH]1)c1cn2cc(Cl)ccc2n1` [Example 21, 6-Chloro-imidazo[1,2-a]pyridine-2-carboxylic acid [5-(4-trifluoromethyl-benzyloxy)-1H-benzoimidazol-2-yl]-amide] gave an IC50 of 0.14 µM.

The compound `Cc1cccn2cc(C(=O)Nc3nc4cc(-c5ccc(C(F)(F)F)c(Cl)c5)ccc4[nH]3)nc12` [Example 93, 8-Methyl-imidazo[1,2-a]pyridine-2-carboxylic acid [5-(3-chloro-4-trifluoromethyl-phenyl)-1H-benzoimidazol-2-yl]-amide] displayed an IC50 of 1.78 µM. This IC50 is about 13-fold higher than that of the compound before.

Compound `Cc1cccc2nc(C(=O)Nc3nc4cc(-c5cc(F)cc(C(F)(F)F)c5)ccc4[nH]3)cn12` [Example 94, 5-Methyl-imidazo[1,2-a]pyridine-2-carboxylic acid [5-(3-fluoro-5-trifluoromethyl-phenyl)-1H-benzoimidazol-2-yl]-amide] yielded an IC50 of 0.42 µM.

For `Cc1cc(Cl)c2nc(C(=O)Nc3nc4cc(-c5cc(F)cc(Cl)c5)ccc4[nH]3)cn2c1` [Example 144, 8-Chloro-6-methyl-imidazo[1,2-a]pyridine-2-carboxylic acid [5-(3-chloro-5-fluoro-phenyl)-1H-benzoimidazol-2-yl]-amide], the IC50 is 0.55 µM.

Consider `O=C(Nc1nc2cc(-c3cccc(C(F)(F)F)c3)ccc2[nH]1)c1cn2c(Br)cccc2n1` [Example 111, 5-Bromo-imidazo[1,2-a]pyridine-2-carboxylic acid [5-(3-trifluoromethyl-phenyl)-1H-benzoimidazol-2-yl]-amide], for which half-maximal inhibition (IC50) was put at 0.22 µM.

`O=C(Nc1nc2cc(-c3cc(F)cc(Cl)c3)ccc2[nH]1)c1cn2cc(F)cc(N3CC[C@@H](O)C3)c2n1` [Example 153, 6-Fluoro-8-((R)-3-hydroxy-pyrrolidin-1-yl)-imidazo[1,2-a]pyridine-2-carboxylic acid [5-(3-chloro-5-fluoro-phenyl)-1H-benzoimidazol-2-yl]-amide]: 1.83 µM corresponded to half-maximal inhibition (IC50).

As to `O=C(Nc1nc2cc(-c3cc(F)cc(Cl)c3)ccc2[nH]1)c1cn2cc(F)cc(N3CC[C@H](O)C3)c2n1` [Example 152, 6-Fluoro-8-((S)-3-hydroxy-pyrrolidin-1-yl)-imidazo[1,2-a]pyridine-2-carboxylic acid [5-(3-chloro-5-fluoro-phenyl)-1H-benzoimidazol-2-yl]-amide], inhibition was half-maximal at 1.53 µM (IC50).

In turn, `O=C(Nc1nc2cc(-c3cccc(C(F)(F)F)c3)ccc2[nH]1)c1cn2ccc(CO)cc2n1` [Example 200, 7-Hydroxymethyl-imidazo[1,2-a]pyridine-2-carboxylic acid [5-(3-trifluoromethyl-phenyl)-1H-benzoimidazol-2-yl]-amide] gave an IC50 of 0.46 µM.

Turning to `Cc1cccc2nc(C(=O)Nc3nc4cc(-c5ccc(O)c(F)c5)ccc4[nH]3)cn12` [Example 103, 5-Methyl-imidazo[1,2-a]pyridine-2-carboxylic acid [5-(3-fluoro-4-hydroxy-phenyl)-1H-benzoimidazol-2-yl]-amide], the IC50 worked out at 1.74 µM.

`Cc1cccn2cc(C(=O)Nc3nc4cc(-c5ccccc5)ccc4[nH]3)nc12` [Example 29, 8-Methyl-imidazo[1,2-a]pyridine-2-carboxylic acid (5-phenyl-1H-benzoimidazol-2-yl)-amide] registered a concentration for half-maximal inhibition (IC50) of 1.29 µM.

Compound `O=C(Nc1nc2cc(-c3cccc(Cl)c3)ccc2[nH]1)c1cn2cc(OCCO)ccc2n1` [Example 9, 6-(2-Hydroxy-ethoxy)-imidazo[1,2-a]pyridine-2-carboxylic acid [5-(3-chloro-phenyl)-1H-benzoimidazol-2-yl]-amide] registered an IC50 of 0.3 µM. This IC50 is about 4.3-fold lower than that of the compound before.

As to `Cc1cccc2nc(C(=O)Nc3nc4cc(OC5CCCC5)ccc4[nH]3)cn12` [Example 30, 5-Methyl-imidazo[1,2-a]pyridine-2-carboxylic acid (5-cyclopentyloxy-1H-benzoimidazol-2-yl)-amide], the IC50 amounted to 4.15 µM. This IC50 lies about 14-fold higher than the previous one.

The compound `CN1CCN(CCOc2cc(F)cn3cc(C(=O)Nc4nc5cc(-c6cc(F)cc(Cl)c6)ccc5[nH]4)nc23)CC1` [Example 148, 6-Fluoro-8-[2-(4-methyl-piperazin-1-yl)-ethoxy]-imidazo[1,2-a]pyridin-2-carboxylic acid [5-(3-chloro-5-fluoro-phenyl)-1H-benzoimidazol-2-yl]-amide] gave an IC50 of 0.39 µM.

The compound `O=C(Nc1nc2cc(-c3cccc(C(F)(F)F)c3)ccc2[nH]1)c1cn2c(CN3CCCCC3)cccc2n1` [Example 166, 5-Piperidin-1-ylmethyl-imidazo[1,2-a]pyridine-2-carboxylic acid [5-(3-trifluoromethyl-phenyl)-1H-benzoimidazol-2-yl]-amide] returned an IC50 of 0.79 µM.

In the case of `O=C(Nc1nc2cc(OCc3ccc(C(F)(F)F)cc3)ccc2[nH]1)c1cn2ccccc2n1` [Example 17, Imidazo[1,2-a]pyridine-2-carboxylic acid [5-(4-trifluoromethyl-benzyloxy)-1H-benzoimidazol-2-yl]-amide], the IC50 stood at 0.12 µM.

`Cc1cccn2cc(C(=O)Nc3nc4cc(-c5cc(Cl)ccc5Cl)ccc4[nH]3)nc12` [Example 88, 8-Methyl-imidazo[1,2-a]pyridine-2-carboxylic acid [5-(2,5-dichloro-phenyl)-1H-benzoimidazol-2-yl]-amide] gave a 50% inhibitory concentration (IC50) of 0.29 µM.

`CCc1cccc2nc(C(=O)Nc3nc4cc(-c5cccc(C(F)(F)F)c5)ccc4[nH]3)cn12` [Example 104, 5-Ethyl-imidazo[1,2-a]pyridine-2-carboxylic acid [5-(3-trifluoromethyl-phenyl)-1H-benzoimidazol-2-yl]-amide]: the IC50 stood at 0.31 µM.

As to `O=C(Nc1nc2cc(-c3cc(F)cc(Cl)c3)ccc2[nH]1)c1cn2cc(F)cc(OCCN3CCOCC3)c2n1` [Example 145, 6-Fluoro-8-(2-morpholin-4-yl-ethoxy)-imidazo[1,2-a]pyridine-2-carboxylic acid [5-(3-chloro-5-fluoro-phenyl)-1H-benzoimidazol-2-yl]-amide], the IC50 came to 0.52 µM. This IC50 lies about 1.7-fold higher than the previous one.

The compound `Cc1cccc2nc(C(=O)Nc3nc4cc(-c5ccc(C6CCCCC6)cc5)ccc4[nH]3)cn12` [Example 101, 5-Methyl-imidazo[1,2-a]pyridine-2-carboxylic acid [5-(4-cyclohexyl-phenyl)-1H-benzoimidazol-2-yl]-amide] gave an IC50 of 0.3 µM.

In the case of `CN(C)CCOc1cc(Cl)cn2cc(C(=O)Nc3nc4cc(-c5cc(F)cc(Cl)c5)ccc4[nH]3)nc12` [Example 142, 6-Chloro-8-(2-dimethylamino-ethoxy)-imidazo[1,2-a]pyridine-2-carboxylic acid [5-(3-chloro-5-fluoro-phenyl)-1H-benzoimidazol-2-yl]-amide], it took 0.34 µM to reach half-maximal inhibition (IC50). The IC50 values of the last two compounds are within 1.5-fold of each other.

As to `CC(C)c1cccc2nc(C(=O)Nc3nc4cc(-c5cccc(C(F)(F)F)c5)ccc4[nH]3)cn12` [Example 222, 5-(propan-2-yl)-N-{5-[3-(trifluoromethyl)phenyl]-1H-benzimidazol-2-yl}imidazo[1,2-a]pyridine-2-carboxamide], the IC50 is 1.23 µM. This IC50 is about 3.6-fold higher than that of the compound before.

The compound `Cc1ccc(-c2ccc3[nH]c(NC(=O)c4cn5c(C)cccc5n4)nc3c2)cc1` [Example 120, 5-Methyl-imidazo[1,2-a]pyridine-2-carboxylic acid (5-p-tolyl-1H-benzoimidazol-2-yl)-amide] registered a half-inhibitory concentration (IC50) of 0.49 µM.

With `CN(C)CCNCc1ccn2cc(C(=O)Nc3nc4cc(-c5cccc(C(F)(F)F)c5)ccc4[nH]3)nc2c1` [Example 212, 7-[(2-Dimethylamino-ethylamino)-methyl]-imidazo[1,2-a]pyridine-2-carboxylic acid [5-(3-trifluoromethyl-phenyl)-1H-benzoimidazol-2-yl]-amide], the 50% inhibitory concentration (IC50) stood at 0.26 µM.

On to `O=C(Nc1nc2cc(OCc3ccc(Cl)cc3Cl)ccc2[nH]1)c1cn2cc(Cl)ccc2n1` [Example 15, 6-Chloro-imidazo[1,2-a]pyridine-2-carboxylic acid [5-(2,4-dichloro-benzyloxy)-1H-benzoimidazol-2-yl]-amide], for which the IC50 was found to be 0.23 µM.

In the case of `Cc1c(N2CC[C@H](O)C2)ccc2nc(C(=O)Nc3nc4cc(-c5cc(F)cc(Cl)c5)ccc4[nH]3)cn12` [Example 235, 6-((S)-3-Hydroxy-pyrrolidin-1-yl)-5-methyl-imidazo[1,2-a]pyridine-2-carboxylic acid [5-(3-chloro-5-fluoro-phenyl)-1H-benzoimidazol-2-yl]-amide], it took 0.69 µM to reach half-maximal inhibition (IC50). Compared with the last compound, the IC50 is about 3-fold higher.

Values taken from US20120101093A1, “SUBSTITUTED IMIDAZO[1,2-A]PYRIDINE DERIVATIVES, PHARMACEUTICAL COMPOSITIONS, AND METHODS OF USE AS BETA-SECRETASE INHIBITORS” (HIGH POINT PHARMACEUTICALS, LLC, priority 2009, published 2012).
